Experimental data as given in patent US20230398130A1, “METHODS AND COMPOSITIONS FOR DIFFERENTIATING STEM CELLS” (Massachusetts Institute of Technology, priority 2020, published 2023).

Key:
[1] = test system: ISC-enriched organoids; experiment: Primary screen, 384-well 2.5-D organoid differentiation (ENR+CD, 6 days): basal lysozyme secretion (LYZ.NS); format: cell-based, murine; details: primary screen; for Dose.FC.LYZ.NS: FC vs plate median; for Z.LYZ.NS: standard z score; for SSMD.LYZ.NS: strictly standardized mean difference
Source text: (§1) High-throughput screening.

[2] = test system: ISC-enriched organoids; experiment: Primary screen, 384-well 2.5-D organoid differentiation (ENR+CD, 6 days): carbachol-induced lysozyme secretion (LYZ.S); format: cell-based, murine; details: primary screen; for Dose.FC.LYZ.S: FC vs plate median; for Z.LYZ.S: standard z score; for SSMD.LYZ.S: strictly standardized mean difference
Source text: as §1

[3] = test system: ISC-enriched organoids; experiment: Primary screen, 384-well 2.5-D organoid differentiation (ENR+CD, 6 days, Target Selective Inhibitor Library, vs whole-plate median): ATP (CellTiter-Glo 3D, CTG); details: primary screen; for Dose.FC.CTG: FC vs plate median; for Z.CTG: standard z score; for SSMD.CTG: strictly standardized mean difference
[4] = 1st of the 4 dose lines of the treatment (dose not given)
[5] = 2nd of the 4 dose lines of the treatment (dose not given)
[6] = 3rd of the 4 dose lines of the treatment (dose not given)
[7] = 4th of the 4 dose lines of the treatment (dose not given)

| Compound | SSMD.LYZ.NS [1, 4] | SSMD.LYZ.NS [1, 5] | SSMD.LYZ.NS [1, 6] | SSMD.LYZ.NS [1, 7] | Z.LYZ.S [2, 4] | Z.LYZ.S [2, 5] | Z.LYZ.S [2, 6] | Z.LYZ.S [2, 7] | SSMD.LYZ.S [2, 4] | SSMD.LYZ.S [2, 5] | SSMD.LYZ.S [2, 6] | SSMD.LYZ.S [2, 7] | Z.CTG ([3]; Dose 0.08 uM) | Z.CTG ([3]; Dose 0.40 uM) | Z.CTG ([3]; Dose 2.00 uM) | Z.CTG ([3]; Dose 10.00 uM) | SSMD.CTG [3, 4] | SSMD.CTG [3, 5] | SSMD.CTG [3, 6] | SSMD.CTG [3, 7] | also measured |
| --- | --- | --- | --- | --- | --- | --- | --- | --- | --- | --- | --- | --- | --- | --- | --- | --- | --- | --- | --- | --- | --- |
| O=C(/C=C\n1cnc(-c2cc(C(F)(F)F)cc(C(F)(F)F)c2)n1)N1CC(F)(F)C1 [KPT-276] | 0.486 | 0.742 | −1.426 | −1.384 | 0.860 | 0.958 | −2.111 | −2.335 | 0.806 | 0.771 | −1.399 | −1.417 | 0.399 | −0.104 | −0.986 | −1.680 | 0.494 | −0.146 | −0.772 | −2.520 | Dose.FC.LYZ.NS ([1]; Dose 0.08 uM): 0.056 log 2 fold change; Z.LYZ.NS ([1]; Dose 0.08 uM): 0.492; Dose.FC.LYZ.NS ([1]; Dose 0.40 uM): 0.086 log 2 fold change; Z.LYZ.NS ([1]; Dose 0.40 uM): 0.746; Dose.FC.LYZ.NS ([1]; Dose 2.00 uM): −0.224 log 2 fold change; Z.LYZ.NS ([1]; Dose 2.00 uM): −1.947; Dose.FC.LYZ.NS ([1]; Dose 10.00 uM): −0.256 log 2 fold change; Z.LYZ.NS ([1]; Dose 10.00 uM): −2.230; Dose.FC.LYZ.S ([2]; Dose 0.08 uM): 0.133 log 2 fold change; Dose.FC.LYZ.S ([2]; Dose 0.40 uM): 0.148 log 2 fold change; Dose.FC.LYZ.S ([2]; Dose 2.00 uM): −0.327 log 2 fold change; Dose.FC.LYZ.S ([2]; Dose 10.00 uM): −0.361 log 2 fold change; Dose.FC.CTG ([3]; Dose 0.08 uM): 0.167 log 2 fold change; Dose.FC.CTG ([3]; Dose 0.40 uM): −0.044 log 2 fold change; Dose.FC.CTG ([3]; Dose 2.00 uM): −0.413 log 2 fold change; Dose.FC.CTG ([3]; Dose 10.00 uM): −0.703 log 2 fold change |
| C[C@@H]1CN(CC(=O)Nc2ccc3c(c2)Cc2cccc(-c4cc(=O)cc(N5CCOCC5)o4)c2S3)C[C@H](C)O1 [KU-60019] | 0.305 | −0.014 | −0.103 | −0.570 | 1.490 | 0.474 | −0.317 | −1.436 | 0.938 | 0.312 | −0.261 | −0.923 | 0.273 | 0.094 | 0.290 | −1.246 | 0.371 | 0.118 | 0.175 | −0.916 |  |
| COC(=O)CCSCc1ccc(-c2onc(C)c2NC(=O)OC(C)c2ccccc2Cl)cc1 (centres unmarked) [Ki16198] | 0.052 | −0.083 | 0.211 | −0.914 | 0.176 | 0.204 | −0.095 | −0.239 | 0.136 | 0.231 | −0.105 | −0.262 | −0.026 | −0.258 | −0.078 | 0.052 | −0.028 | −0.359 | −0.118 | 0.073 | Dose.FC.LYZ.NS ([1]; Dose 0.08 uM): 0.005 log 2 fold change; Z.LYZ.NS ([1]; Dose 0.08 uM): 0.044; Dose.FC.LYZ.NS ([1]; Dose 0.40 uM): −0.009 log 2 fold change; Z.LYZ.NS ([1]; Dose 0.40 uM): −0.076; Dose.FC.LYZ.NS ([1]; Dose 2.00 uM): 0.060 log 2 fold change; Z.LYZ.NS ([1]; Dose 2.00 uM): 0.519; Dose.FC.LYZ.NS ([1]; Dose 10.00 uM): −0.103 log 2 fold change; Z.LYZ.NS ([1]; Dose 10.00 uM): −0.899; Dose.FC.LYZ.S ([2]; Dose 0.08 uM): 0.027 log 2 fold change; Dose.FC.LYZ.S ([2]; Dose 0.40 uM): 0.031 log 2 fold change; Dose.FC.LYZ.S ([2]; Dose 2.00 uM): −0.015 log 2 fold change; Dose.FC.LYZ.S ([2]; Dose 10.00 uM): −0.037 log 2 fold change; Dose.FC.CTG ([3]; Dose 0.08 uM): −0.011 log 2 fold change; Dose.FC.CTG ([3]; Dose 0.40 uM): −0.108 log 2 fold change; Dose.FC.CTG ([3]; Dose 2.00 uM): −0.033 log 2 fold change; Dose.FC.CTG ([3]; Dose 10.00 uM): 0.022 log 2 fold change |
